In patent US5405857A, “3-substituted 1,2,3,4,-oxatriazole-5-imine compounds, a process for the preparation thereof and a pharmaceutical preparation containing said compounds” (A/S GEA Farmaceutisk Fabrik, priority 1991, dated 1995):
Structures can show the parent of a compound that is named as a salt. Where two headings read alike, the source gives them in different places. One block for each compound: values may come before it.

Assays:
blood platelets = experiment: Inhibition of blood platelet aggregation (aggregometer, ADP); type: cell-based, human (healthy testees); settings: for IC50: Platelet, 0.05 h, read-out: IC50 (Inhibition of blood platelet aggregation)
Experimental: Compounds according to the invention were tested for their inhibition of clumping together (aggregation) of blood platelets (thrombocytes), which is the first phase of the formation of blood clots (thrombi). Such an inhibition may prevent the formation of blood clots and inhibit the development of new thrombi after a diagnosed thrombus.
Citrate stabilized ( 0.38% of sodium citrate, final concentration) venous blood from healthy testees is used, who have not used medicine for at least 8 days. Slight centrifugation (160×g for 10 minutes) results in PRP (blood plasma rich in platelets) which is pipetted. PPP (blood plasma poor in platelets) is obtained by an intense centrifugation (3000×g for 10 minutes) of the remaining blood. The light transmission is measured by the aggregometer (CHRONOLOG). PRP allows nearly no light transmitaaion, while PPP allows complete transmission of light. The PRP is placed in the aggregometer at 37° C. while being stirred by a magnet. Addition of a pro-aggregating substance causes the PRP to aggregate gradually and an increasing light transmission takes place at the same time. At complete aggregation a light transmission corresponding to PPP is obtained. Adnosine diphosphate (ADP) is used as pro-aggregating substance, said substance representing a basic biochemical mechanism for aggregation of blood platelets. The test substances are incubated for 3 minutes in PRP placed in the aggregometer at 37° C. during magnetic stirring. A predetermined positively aggregating dosage of adenosine diphosphate (ADP) (2 to 4 μM) is then added. […] A so-called IC50 -value (that is the concentration inhibiting the aggregation by 50% relative to the control aggregation) is calculated for each test substance by linear regression analysis (log concentration μM as constant ad abscissa and % inhibition as variable ad ordinate). The following known reference substances have been used: nitroglycerine (GTN), sodium nitroprusside (NNP) and SIN-1 (the active metabolite of molsidomine).

PAI-1 = experiment: Inhibition of plasminogen activator inhibitor (PAI-1) from blood platelets (fibrinolytic activity); type: cell-based, human; settings: 50 μM, 60 minutes; for % Inhibition of PAI-1 activity: compared to control; for PAI-1 activity: human PRP, control 3.24
Experimental: Compounds according to the invention were tested for their inhibition of plasminogen activator inhibitor (PAI). An established thrombus comprises aggregated platelets cohered by fibrin. The organism has a fibrinolyric system for maintaining normal physiological conditions. Endogenous plasminogen is activated to plasmin (fibrinolysin, that is a proteolytic enzyme decomposing fibrin) by means of a tissue plasminogen activator (t-PA). The platelets include the enzyme PAI-1 inhibiting the activation of plasminogen to plasmin, and thus also the decomposition of fibrin.
A general stimulation of the fibrinolytic system can cause serious hemostatic side effects (haemorrhages). A specific inhibition of PAI-1 induces an increased fibrinolysis in areas with many platelets, which is exactly the case in thrombi. As a result a thrombolytic effect is obtained.
Human PRP prepared by slight centrifugation as previously mentioned is used, but at a low temperature (4° C.). By incubation of PRP (1 ml in a plastic tube) during a slight shaking at 37° C. the PAI-1 activity is liberated, said PAI-1 activity being measured spectrophotometrically by means of a two-step procedure using commercial kits (Spectrolyse™/fibrin kit from BIOPOOL, Sweden).
The PAI-1 activity of the control PRP and PRP incubated with each of 6 compounds according to the invention and the reference substance sodium niroprusside (NNP) (50 μM of each for 60 minutes) appear from Table 6.

pre-contracted trachea = experiment: Relaxation of pre-contracted isolated trachea; parameters: species or system guinea pig; settings: Cavia porcellus; carbamylcholine 0.3 μM, Krebs buffer, 37° C.
Experimental: Compounds according to the invention were tested for their ability to relax a pre-contracted trachea. A contraction of the respiratory passages in combination with a swelling of the mucuos membrane therein presents a vital factor at asthmatic conditions. Relaxation or dilation of the contracted respiratory passages will improve the asthmatic condition.
An isolated trachea from a guinea pig is used. After preparation of a strip which has maintained the circular musculature, the organ is divided into two parts of equal size. The two tracheal strips are suspended in their respective organ bath and connected to a transducer recording the contraction and relaxation of the organ by means of a recorder. The two tracheal strips are continuously bathed in a Krebs buffer at 37° C., constantly bubbled with carbogen (95% O2 and 5% CO2). After an equilibration time of about 3 hours the organs are tested for their sensitivity (contractility) to carbamylcholin a bolus being added directly to the bath (0.3 μM). If the contraction is satisfactory, the organs are transferred to the Krebs buffer containing the same concentration of carbamylcholine. The organs are now constantly exposed to the carbamylcholine and slowly develop a permanent contraction ("asthma"). The test substances are in bolus form added directly to the organ bath. After maximum effect (relaxation) the substances are removed by washing out and the tracheal strip reverts to its permanent contraction state. […] An EC50 -value (that is the concentration relaxing the organ by 50% relative to the maximum relaxation) is calculated for each test substance by means of a linear regression analysis (log concentration (μM) as a constant ad abscissa and % relaxation as variable ad ordinate). Sodium nitroprusside (NNP) and SIN-1 are used as reference substances.

[1] = molecular target: T1, soluble guanylate cyclase (Homo sapiens, UniProt Q02153); experiment: Stimulation of guanylate cyclase from blood platelets (RIA); type: biochemical; settings: 37° C.
T1 construct: The guanylate cyclase activity in the supernatant after incubation with and without the test substance; endogenous in cells; host or cells: human blood platelets, supernatant of homogenate
T1 sequence (Q02153 1-619): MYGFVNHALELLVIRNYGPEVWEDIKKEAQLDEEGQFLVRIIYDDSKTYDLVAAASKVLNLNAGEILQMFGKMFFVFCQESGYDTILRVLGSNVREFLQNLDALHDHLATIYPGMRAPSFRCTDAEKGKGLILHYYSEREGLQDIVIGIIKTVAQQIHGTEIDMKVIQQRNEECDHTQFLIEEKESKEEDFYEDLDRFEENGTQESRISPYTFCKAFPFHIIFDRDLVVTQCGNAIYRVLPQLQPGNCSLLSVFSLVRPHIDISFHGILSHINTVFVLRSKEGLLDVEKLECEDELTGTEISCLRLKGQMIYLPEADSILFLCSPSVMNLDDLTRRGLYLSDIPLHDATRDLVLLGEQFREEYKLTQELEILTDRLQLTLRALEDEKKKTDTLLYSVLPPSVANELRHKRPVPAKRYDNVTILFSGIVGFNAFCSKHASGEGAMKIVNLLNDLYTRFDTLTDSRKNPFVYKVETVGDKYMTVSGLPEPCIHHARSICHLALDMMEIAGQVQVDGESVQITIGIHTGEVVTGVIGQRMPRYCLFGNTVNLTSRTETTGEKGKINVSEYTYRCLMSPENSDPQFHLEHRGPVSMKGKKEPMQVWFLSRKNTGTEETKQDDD
T1 sequence (Q02108 1-690 partner): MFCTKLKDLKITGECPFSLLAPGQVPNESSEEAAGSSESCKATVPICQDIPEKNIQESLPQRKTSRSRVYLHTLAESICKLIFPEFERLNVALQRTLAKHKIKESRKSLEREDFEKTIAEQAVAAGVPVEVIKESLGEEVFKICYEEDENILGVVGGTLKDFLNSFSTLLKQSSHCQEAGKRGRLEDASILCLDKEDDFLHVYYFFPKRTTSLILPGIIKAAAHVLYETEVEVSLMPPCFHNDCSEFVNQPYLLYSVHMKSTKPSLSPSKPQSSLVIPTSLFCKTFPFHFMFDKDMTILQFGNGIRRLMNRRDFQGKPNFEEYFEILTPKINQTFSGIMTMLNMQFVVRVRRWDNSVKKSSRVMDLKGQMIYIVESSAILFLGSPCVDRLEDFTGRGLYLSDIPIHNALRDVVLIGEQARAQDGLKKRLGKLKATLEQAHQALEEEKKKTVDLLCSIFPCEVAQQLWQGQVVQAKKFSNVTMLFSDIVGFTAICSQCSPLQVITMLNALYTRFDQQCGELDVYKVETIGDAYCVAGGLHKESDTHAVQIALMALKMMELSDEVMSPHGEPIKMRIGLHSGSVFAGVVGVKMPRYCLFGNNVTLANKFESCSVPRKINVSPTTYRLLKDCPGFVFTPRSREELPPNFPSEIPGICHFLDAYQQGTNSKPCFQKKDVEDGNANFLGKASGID

[2] = tested on: polymorph nuclear leukocytes (PMNs), c-GMP; experiment: Stimulation of c-GMP content in PMNs; type: cell-based, human; settings: 37° C., 10 minutes
Experimental: Compounds according to the invention were tested for their ability to increase the content of cyclic guanosine monophosphate (c-GMP), to inhibit the synthesis of the leukotriene B4 (LTB4), and to inhibit the chemotactical movement of polymorph nuclear leukocytes (PMN). The polymorph nuclear leukocytes play a vital part in the cellular part of the inflammation process. At diseases, such as asthma, the mucuos membrane of the respiratory passages is swollen as a result of an inflammation with a significant infiltration of polymorph nuclear leukocytes (PMN's) in particular. Particularly effective substances for the treatment of asthma are such which in addition to relaxing the musculature in the respiratory passages also have an anti-inflammatory effect on the cellular phase of the inflammatory process, that is inhibiting the leukocyte function.
Isolated human PMNs are incubated at 37° C. for 10 minutes, whereafter the content of cyclic guanosine monophosphate (c-GMP) is measured. Further, the synthesis of the LTB4 is determined after stimulation with Ca-ionophore (A23187) and the chemotaxis (controlled movement) towards FMLP (a substance attracting the polymorph nuclear leukocytes, PMNs) is determined.
Three compounds according to the invention and the reference substance SIN-1 were tested for their ability to stimulate the content of cyclic guanosine monophosphate (c-GMP).

male rats = settings: rat, in vivo, po, 20 mg/kg
Experimental: Two tests were carried out on male rats, namely a determination of the "maximum tolerable dose" (MTD) and a test using multiple peroral doses. In addition, a LD50 test was carried out intravenously on mice.
At this test the substances were administered perorally in a dose of 20 mg per kg. as solutions or suspensions once a day for 5 days to groups of 5 animals. Clinical observations were made every day and the above hematological parameters were measured on the third day of the test.

[3] = human PRP, ADP 2 to 4 μM, 3 min incubation, 37° C.

IC50 (blood platelets; [3]): 100 nM
Compound: N#Cc1cccc(-[n+]2noc([NH-])n2)c1 [Example 7]

Compound: [NH-]c1n[n+](-c2ccc(Cl)c(C(F)(F)F)c2)no1 [Example 18]
IC50 (blood platelets; Homo sapiens): 540 nM
% Inhibition of PAI-1 activity (PAI-1): 40%
PAI-1 activity (PAI-1): 1.93 U/10^8 platelets

EC50 (pre-contracted trachea): 700 nM
Compound: COc1ccc(C(=O)[N-]c2n[n+](-c3cccc(Cl)c3C)no2)cc1 [Example 53]

Guanylate cyclase activity ([1]; 0.01 μM): 411 pmole c-GMP/mg prot. × 15 minutes
Guanylate cyclase activity ([1]; 10 μm (so in the source)): 37920 pmole c-GMP/mg prot. × 15 minutes
Compound: [NH-]c1n[n+](-c2ccccc2C(F)(F)F)no1 [Example 2]

Guanylate cyclase activity ([1]; 0.01 μM): 2374 pmole c-GMP/mg prot. × 15 minutes
Guanylate cyclase activity ([1]; 10 μm (so in the source)): 59716 pmole c-GMP/mg prot. × 15 minutes
Compound: [NH-]c1n[n+](-c2ccc(Cl)c(Cl)c2)no1 [Example 24]
% Inhibition of PAI-1 activity (PAI-1): 34%
PAI-1 activity (PAI-1): 2.14 U/10^8 platelets
c-GMP in PMNs ([2]; 1 μM): 391 fmole/10^6 cells
c-GMP in PMNs ([2]; 10 μM): 965 fmole/10^6 cells
c-GMP in PMNs ([2]; 100 μM): 1078 fmole/10^6 cells

Compound: O=[N+]([O-])OCC(CO[N+](=O)[O-])O[N+](=O)[O-] [GTN, nitroglycerine, reference compound]
Inhibition of blood platelet aggregation (in words) (blood platelets; ADP, PRP): inactive
IC50 (blood platelets; [3]): 100000 nM

Compound: O=C([N-]c1n[n+](-c2cccc(C(F)(F)F)c2)no1)c1ccncc1 [Example 50]
Clinical observations (male rats): N.R.
Hematological parameters (male rats): N.R.
Side effects (in words) (male rats): no side effects
IC50 (blood platelets; [3]): 90 nM

IC50 (blood platelets; [3]): 190 nM
Compound: O=C([N-]c1n[n+](-c2cccc(C(F)(F)F)c2)no1)c1cccnc1 [Example 34]

Guanylate cyclase activity ([1]; 0.01 μM): 383 pmole c-GMP/mg prot. × 15 minutes
Guanylate cyclase activity ([1]; 10 μm (so in the source)): 76915 pmole c-GMP/mg prot. × 15 minutes
Compound: [NH-]c1n[n+](-c2c(Cl)cccc2Cl)no1 [Example 23]

Guanylate cyclase activity ([1]; 0.01 μM): 1761 pmole c-GMP/mg prot. × 15 minutes
Guanylate cyclase activity ([1]; 10 μm (so in the source)): 72730 pmole c-GMP/mg prot. × 15 minutes
Compound: Cc1c(Cl)cccc1-[n+]1noc([N-]C2CCCCC2)n1 [Example 63]

Guanylate cyclase activity ([1]; 0.01 μM): 2499 pmole c-GMP/mg prot. × 15 minutes
Guanylate cyclase activity ([1]; 10 μm (so in the source)): 47529 pmole c-GMP/mg prot. × 15 minutes
Compound: [NH-]c1n[n+](-c2cccc(C(F)(F)F)c2)no1 [Example 3, 3-(3-trifluoromethylphenyl)-1,2,3,4-oxatriazole-5-imine hydrochloride]

Compound: [NH-]c1n[n+](-c2ccc(Cl)cc2F)no1 [Example 26]
Clinical observations (male rats): N.R.
Hematological parameters (male rats): N.R.
Side effects (in words) (male rats): no side effects

Compound: O=C([N-]c1n[n+](-c2ccc(Cl)cc2Cl)no1)c1cccnc1 [Example 43]
Clinical observations (male rats): N.R.
Hematological parameters (male rats): N.R.
Side effects (in words) (male rats): no side effects

Guanylate cyclase activity ([1]; 0.01 μM): 897 pmole c-GMP/mg prot. × 15 minutes
Guanylate cyclase activity ([1]; 10 μm (so in the source)): 64192 pmole c-GMP/mg prot. × 15 minutes
Compound: N#Cc1ccc(-[n+]2noc([NH-])n2)cc1 [Example 8]
% Inhibition of PAI-1 activity (PAI-1): 44%
PAI-1 activity (PAI-1): 1.83 U/10^8 platelets

Compound: [NH-]c1n[n+](-c2cccc(Cl)c2Cl)no1 [Example 21, 3-(2-chloro-3-chlorophenyl)-1,2,3,4-oxatriazole-5-imine]
Clinical observations (male rats): N.R.
Hematological parameters (male rats): N.R.
Side effects (in words) (male rats): no side effects
